Structures can show the parent of a compound that is named as a salt.
Assays:
[1] = biological target: T1, HCMV polymerase (Human cytomegalovirus, UniProt P08546); test: biochemical; details: modified SPA assay: compounds diluted in 100% DMSO, 4.5 mM DTT in polymerase buffer; read-out: polymerase IC50 (μM) HCMV
T1 construct: made in house; host or cells: recombinant baculovirus-infected SF-9 cells
Description: The HCMV polymerase assay is performed using a scintillation proximity assay (SPA) as described in several references, such as N. D. Cook, et al., Pharmaceutical Manufacturing International, pages 49-53 (1992); K. Takeuchi, Laboratory Practice, September issue (1992); U.S. Pat. No. 4,568,649 (1986); which are incorporated by reference herein. Reactions are performed in 96-well plates. The assay is conducted in 100 μl volume with 5.4 mM HEPE (pH 7.5), 11.7 mM KCl, 4.5 mM MgCl2, 0.36 mg/ml BSA, and 90 nM ^3H-dTTP. Assays are run with and without CHAPS, (3-[(3-cholamidopropyl)-dimethylammonio]-1-propane-sulfonate) at a final concentration of 2 mM. HCMV polymerase is diluted in enzyme dilution buffer containing 50% glycerol, 250 mM NaCl, 10 mM HEPES (pH 7.5), 100 μg/ml BSA, and 0.01% sodium azide. The HCMV polymerase, which is expressed in recombinant baculovirus-infected SF-9 cells and purified according to literature procedures, is added at 10% (or 10 μl) of the final reaction volume, i.e., 100 μl. Compounds are diluted in 50% DMSO and 10 μl are added to each well. Control wells contain an equivalent concentration of DMSO. Unless noted otherwise, reactions are initiated via the addition of 6 nM biotinylated poly(dA)-oligo(dT) template/primer to reaction mixtures containing the enzyme, substrate, and compounds of interest. Plates are incubated in a 25 C or 37 C H2O bath and terminated via the addition of 40 μl/reaction of 0.5 M EDTA (pH 8) per well. Reactions are terminated within the time-frame during which substrate incorporation is linear and varied depending upon the enzyme and conditions used, i.e., 30 min. for HCMV polymerase. Ten μl of streptavidin-SPA beads (20 mg/ml in PBS/10% glycerol) are added following termination of the reaction. Plates are incubated 10 min. at 37 ° C., then equilibrated to room temperature, and counted on a Packard Topcount. Linear regressions are performed and IC50's are calculated using computer software.
A modified version of the above HCMV polymerase assay is performed as described above, but with the following changes: Compounds are diluted in 100% DMSO until final dilution into assay buffer. In the previous assay, compounds are diluted in 50% DMSO. 4.5 mM dithiothreotol (DTT) is added to the polymerase buffer.

T1 sequence (P08546 whole entry): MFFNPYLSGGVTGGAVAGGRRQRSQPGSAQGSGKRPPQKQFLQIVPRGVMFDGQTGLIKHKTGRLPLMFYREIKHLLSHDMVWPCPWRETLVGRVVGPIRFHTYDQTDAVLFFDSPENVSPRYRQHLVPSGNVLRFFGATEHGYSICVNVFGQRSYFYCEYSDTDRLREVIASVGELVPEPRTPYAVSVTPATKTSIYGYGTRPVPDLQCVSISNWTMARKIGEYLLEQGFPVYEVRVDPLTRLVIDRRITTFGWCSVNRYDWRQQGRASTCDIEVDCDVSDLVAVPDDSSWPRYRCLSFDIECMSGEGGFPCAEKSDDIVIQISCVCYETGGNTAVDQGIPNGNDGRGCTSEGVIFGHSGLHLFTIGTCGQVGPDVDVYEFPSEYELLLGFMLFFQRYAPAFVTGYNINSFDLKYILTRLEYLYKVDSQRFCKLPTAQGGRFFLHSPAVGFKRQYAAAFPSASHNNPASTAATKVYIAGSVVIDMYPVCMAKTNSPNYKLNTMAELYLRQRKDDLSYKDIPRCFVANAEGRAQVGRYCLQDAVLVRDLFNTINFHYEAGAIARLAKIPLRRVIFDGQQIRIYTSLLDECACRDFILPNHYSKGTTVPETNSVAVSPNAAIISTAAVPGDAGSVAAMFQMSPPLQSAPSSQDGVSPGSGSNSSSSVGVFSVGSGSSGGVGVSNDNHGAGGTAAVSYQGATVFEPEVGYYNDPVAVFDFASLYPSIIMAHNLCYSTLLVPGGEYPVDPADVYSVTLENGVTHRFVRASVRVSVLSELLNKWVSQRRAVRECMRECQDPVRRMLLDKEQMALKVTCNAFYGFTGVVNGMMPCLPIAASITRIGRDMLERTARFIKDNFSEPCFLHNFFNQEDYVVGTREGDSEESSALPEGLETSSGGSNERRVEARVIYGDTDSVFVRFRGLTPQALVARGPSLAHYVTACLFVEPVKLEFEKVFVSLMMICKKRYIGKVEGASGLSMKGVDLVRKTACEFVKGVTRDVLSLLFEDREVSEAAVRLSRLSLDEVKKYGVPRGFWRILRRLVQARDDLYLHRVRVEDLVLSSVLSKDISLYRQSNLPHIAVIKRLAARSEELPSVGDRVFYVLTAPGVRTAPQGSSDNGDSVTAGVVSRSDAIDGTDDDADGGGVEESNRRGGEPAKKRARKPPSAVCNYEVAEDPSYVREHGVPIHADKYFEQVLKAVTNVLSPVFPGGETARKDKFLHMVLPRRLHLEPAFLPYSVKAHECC

`COCC#Cc1cc2c(O)c(C(=O)NCc3ccc(Cl)cc3)cnc2s1` [Example 6, N-(4-Chlorobenzyl)-4-hydroxy-2-(3-methoxy-1-propynyl)-thieno[2,3-b]pyridine-5-carboxamide] showed an IC50 [1] of 5.8 µM and a melting point of 215 to 218 °C.
Work on `N#Cc1cc2c(O)c(C(=O)NCc3ccc(Cl)cc3)cnc2s1` [Example 9, N-(4-Chlorobenzyl)-2-cyano-4-hydroxythieno[2,3-b]pyridine-5-carboxamide] yielded an IC50 [1] of 12.5 µM.
In the case of `Cn1cc(C(=O)NCc2ccc(Cl)cc2)c(=O)c2cc(CN3CCSCC3)sc21` [Example 38, N-(4-Chlorobenzyl)-7-methyl-4-oxo-2-(4-thiomorpholinyl-methyl)-4,7-dihydrothieno[2,3-b]pyridine-5-carboxamide], the IC50 [1] is reported as 2.6 µM and the melting point is reported as 215 to 218 °C (dec.).
Molecule `O=C(NCc1ccc(Cl)cc1)c1cnc2sc(Br)cc2c1O` [Example 4, 2-Bromo-N-(4-chlorobenzyl)-4-hydroxythieno[2,3-b]pyridine-5-carboxamide] has an IC50 [1] of 10.8 µM and a melting point of 234 to 236 °C.
`CCn1cc(C(=O)NCc2ccc(Cl)cc2)c(=O)c2ccsc21` [Example 12, N-(4-Chlorobenzyl)-7-ethyl-4-oxo-4,7-dihydrothieno[2,3-b]pyridine-5-carboxamide] showed an IC50 [1] of 11 µM and a melting point of 183 to 184 °C.
`O=C(NCc1ccc(Cl)cc1)c1cnc2sccc2c1O` [Example 1, N-(4-Chlorobenzyl)-4-hydroxythieno[2,3-b]pyridine-5-carboxamide] gave an IC50 [1] of 28.9 µM and a melting point of 238 to 240 °C.
`CCN(CC)CCn1cc(C(=O)NCc2ccc(Cl)cc2)c(=O)c2cc(CCCO)sc21` [Example 22, N-(4-Chlorobenzyl)-7-[2-(diethylamino)ethyl]-2-(3-hydroxypropyl)4-oxo4,7-dihydrothieno[2,3-b]pyridine-5-carboxamide Hydrorhloride] showed an IC50 [1] of 0.81 µM and a melting point of 111 to 114 °C.
In the case of `CCn1cc(C(=O)NCc2ccc(Cl)cc2)c(=O)c2cc(C#CCOC(=O)CN3CCOCC3)sc21` [Example 30, 3-(5-{[(4-Chlorobenzyl)amino]carbonyl}-7-ethyl-4-oxo-4,7-dihydrothieno[2,3-b]pyridin-2-yl)-2-propynyl 2-(4-Morpholinyl)acetate], the IC50 [1] is reported as 28.2 µM and the melting point is reported as 168 to 170 °C.
For `CC(C)n1cc(C(=O)NCc2ccc(Cl)cc2)c(=O)c2cc(CN3CCOCC3)sc21` [Example 44, N-(4-Chlorobenzyl)-7-isopropyl-2-(4-morpholinylmethyl)-4-oxo-4,7-dihydrothieno[2,3-b]pyridine-5-carboxamide], the IC50 [1] was 4.7 µM and the melting point was 191 to 195 °C.
`CCn1cc(C(=O)NCc2ccc(Cl)cc2)c(=O)c2cc(CCCCO)sc21` [Example 20, N-(4-Chlorobenzyl)-7-ethyl-2-(4-hydroxybutyl)4-oxo-4,7-dihydrothieno[2,3-b]pyridine-5-carboxamide] showed an IC50 [1] of 0.18 µM and a melting point of 136 to 139 °C.
With `CCCn1cc(C(=O)NCc2ccc(Cl)cc2)c(=O)c2cc(CN3CCOCC3)sc21` [Example 43, N-(4-Chlorobenzyl)-2-(4-morpholinylmethyl)-4-oxo-7-propyl-4,7dihydrothieno[2,3-b]pyridine-5-carboxamide] the IC50 [1] was 1.9 µM and the melting point was 174 to 176 °C.
With `Cn1cc(C(=O)NCc2ccc(Br)cc2)c(=O)c2cc(CN3CCOCC3)sc21` [Example 46, N-(4-Bromobenzyl)-7-methyl-2-(4-morpholinylmethyl)-4-oxo-4,7-dihydrothieno[2,3-b]pyridine-5-carboxamide] the IC50 [1] was 3.8 µM and the melting point was 245 to 246 °C.
Work on `CN(Cc1cc2c(=O)c(C(=O)NCc3ccc(Cl)cc3)cn(C)c2s1)CC(O)c1ccccc1` (stereo not drawn) [Example 40, N-(4-Chlorobenzyl)-2-(((2-hydroxy-2-phenylethyl)(methyl)-amino)methyl)-7-methyl-4-oxo-4,7-dihydrothieno[2,3-b]pyridine-5-carboxamide] yielded an IC50 [1] of under 0.31 µM and a melting point of 184 to 187 °C.
Molecule `CC(C)n1cc(C(=O)NCc2ccc(Cl)cc2)c(=O)c2cc(I)sc21` [Example 26, N-(4-Chlorobenzyl)-2-iodo-7-isopropyl-4-oxo-7-3dihydrothiedion[2,3-b]pyridine-5-carboxamide] has an IC50 [1] of 14.2 µM and a melting point of 173 to 180 °C.
`O=C(NCc1ccc(Cl)cc1)c1cn(CCN2CCCC2)c2sc(CN3CCOCC3)cc2c1=O` [Example 53, N-(4-Chlorobenzyl)-2-(4-morpholinylmethyl)-4-oxo-7-[2-(1-pyrrolidinyl)ethyl]-4,7-dihydrothieno[2,3-b]pyridine-5-carboxamide] gave an IC50 [1] of 4 µM and a melting point of 178 to 180 °C.
With `O=C(NCc1ccc(Cl)cc1)c1cn(Cc2cccc(F)c2)c2sc(CN3CCOCC3)cc2c1=O` [Example 50, N-(4-Chlorobenzyl)-7-(3-fluorobenzyl)-2-(4-morpholinyl-methyl)-4-oxof47-dihydrothieno[2,3-b]pyridine-5-carboxamide] the IC50 [1] was 3.8 µM and the melting point was 214 to 215 °C.
With `O=C(NCc1ccc(Cl)cc1)c1cn(Cc2ccncc2)c2sc(CN3CCOCC3)cc2c1=O` [Example 55, N-(4-Chlorobenzyl)-2-(4-morpholinylmethyl)-4-oxo-7-(4-pyridinylmethyl)-4,7-dihydrothieno[2,3-b]pyridine-5-carboxamide] the IC50 [1] was 5 µM and the melting point was 208 to 210 °C (dec.).
`O=C(NCc1ccc(Cl)cc1)c1cn(Cc2ccccc2)c2sc(CN3CCOCC3)cc2c1=O` [Example 49, 7-Benzyl-N-(4-chlorobenzyl)-2-(4-morpholinylmethyl)-4-oxo-4,7-dihydrothieno[2,3-b]pyridine-5-carboxamide] gave an IC50 [1] of 3.2 µM and a melting point of 225 to 226.5 °C.
With `CCn1cc(C(=O)NCc2ccc(Cl)cc2)c(=O)c2cc(Br)sc21` [Example 11, 2-Bromo-N-(4-chlorobenzyl)-7-ethyl-4-oxo-4,7-dihydrothieno[2,3-b]pyridine-5-carboxamide] the IC50 [1] was 18.8 µM and the melting point was 196 to 197 °C.
`Cn1cc(C(=O)NCc2ccc(F)cc2)c(=O)c2cc(CN3CCOCC3)sc21` [Example 45, N-(4-Fluorobenzyl)-7-methyl-2-(4-morpholinylmethyl)-4-oxo-4,7-dihydrothieno[2,3-b]pyridine-5-carboxamide] showed an IC50 [1] of 2.6 µM and a melting point of 214 to 216 °C.
In the case of `CCn1cc(C(=O)NCc2ccc(Cl)cc2)c(=O)c2cc(C#CCOC(=O)C(N)C(C)C)sc21` (stereo not drawn) (as salt: hydrochloride) [Example 31, 3-(5-{[(4-Chlorobenzyl)amino]carbonyl}-7-ethyl-4-oxo-4,7-dihydrothieno[2,3-b]pyridin-2-yl)-2-propynyl 2-Amino-3-methylbutanoate Hydrochloride], the melting point is reported as 171 to 172 °C.
With `CCn1cc(C(=O)NCc2ccc(Cl)cc2)c(=O)c2cc(C#CCOC(=O)c3cccc(CN4CCOCC4)c3)sc21` [Example 32, 3-(5-{[(4-Chlorobenzyl)amino]carbonyl}-7-ethyl-4-oxo-4,7-dihydrothieno[2,3-b]pyridin-2-yl)-2-propynyl 3-(4-Morpholinylmethyl)benzoate] the IC50 [1] was over 50 µM and the melting point was 147 to 150 °C.
`CC(C)n1cc(C(=O)NCc2ccc(Cl)cc2)c(=O)c2cc(C#CCO)sc21` [Example 27, N-(4-Chlorobenzyl)-2-(3-hydroxy-1-propynyl)-7-isopropyl-4-oxo-4,7-dihydrothieno[2,3-b]pyridine-5-carboxamide] showed an IC50 [1] of 4.2 µM and a melting point of 190 to 196 °C.
`O=C(NCc1ccc(Cl)cc1)c1cnc2sc(C#CCCO)cc2c1O` [Example 7, N-(4-Chlorobenzyl)-4-hydroxy-2-(4-hydroxy-1-butynyl)thieno[2,3-b]pyridine-5-carboxamide] gave an IC50 [1] of 8 µM and a melting point of 242 to 246 °C.
`CCn1cc(C(=O)NCc2ccc(Cl)cc2)c(=O)c2cc(C#CCOC(=O)C(N)C(C)C)sc21` (stereo not drawn) [Example 31, 3-(5-{[(4-Chlorobenzyl)amino]carbonyl}-7-ethyl-4-oxo-4,7-dihydrothieno[2,3-b]pyridin-2-yl)-2-propynyl 2-Amino-3-methylbutanoate Hydrochloride] gave an IC50 [1] of 15.4 µM.
In the case of `CCN(CC)CCn1cc(C(=O)NCc2ccc(Cl)cc2)c(=O)c2cc(C#CCO)sc21` (as salt: hydrochloride) [Example 18, N-(4-Chlorobenzyl)-7-[2-(diethylamino)ethyl]-2-(3hydroxy-1-propynyl)4-oxo4,7-dihydrothieno[2,3-b]pyridine-5-carboxamide hydrochloride], the melting point is reported as 212 to 214 °C (dec.).

— patent US6495683B2, “4-oxo-4,7-dihydro-thieno[2,3-b]pyridine-5-carboxamides as antiviral agents” (Pharmacia and Upjohn Company, priority 1999, dated 2002)
